Measurements: US8563690B2, “Modulation of platelet aggregation” (The Board of Trustees of the University of Illinois, priority 2008, dated 2013)
Residues, ends and D or L forms follow the SMILES beside them. *: point of attachment. Myristoyl = CCCCCCCCCCCCCC(=O)*

What was measured:
Assay type in all cases: cell-based, human
platelets [1] = test system: platelets
Procedure: (§1) FIG. 2A-C: Quantitative analysis of the effect of myristoylated RGT peptide on platelet stable adhesion and spreading on immobilized fibrinogen. FIG. 2A: Platelets were added to microtiter wells precoated with fibrinogen and allowed to adhere for 30 min at 37° C. The phosphatase activity in supernatants (open columns) or in adherent platelets (close columns) was quantified by a PNPP assay. Data of three experiments (means and SD) were presented as the ratio of the phosphatase activity of platelet samples over blank. The asterisks indicate peptide concentration (* 62.5 μM; ** 125 μM; *** 250 μM). […] The phosphatase activity in supernatants (open columns) or in remaining platelet suspensions (close columns) was quantified by a PNPP assay. […] For quantitative analysis of the effect of the RGT peptide on platelet adhesion, we used a phosphatase assay. […] Nonadherent platelets were removed by three vigorous washes with phosphate-buffered saline (PBS), and adherent platelets were quantified by a phosphatase assay. In addition, to monitor peptide-dependent platelet lysis, the platelet phosphatase activity was separately measured in the supernatant of the platelets in suspension or following their adhesion to fibrinogen by mixing with PNPP substrate solution (100 mM sodium acetate, 1% Triton X-100, 3 mg/ml p-nitrophenyl phosphate) for 60 min at 37° C. […]

washed platelets = experiment: Plasma-free platelet-mediated fibrin clot retraction with washed platelets; settings: 1 mM
Procedure: FIG. 3A-B: Effects of myr-RGT on fibrin clot retraction and platelet aggregation. FIG. 3A: Platelets were washed and resuspended in HEPES buffer containing 2 mg/ml of human fibrinogen (see “Experimental Procedures”) and incubated with different peptides or their vehicles as indicated. Fibrin clot formation was initiated by adding 1 U/ml thrombin. Clot retraction was monitored over time and photographs of the clots were taken at different time points (lower panel). The asterisks indicate peptide concentration (* 62.5 μM; ** 125 μM; *** 250 μM). The histograms of the clot size were generated from the photographs by calculating the ratio of the surface area of the retracted clot versus that of the initial clot. […]
Platelet clot retraction is an essential step in platelet thrombus consolidation and is initiated following platelet activation as a late consequence of integrin outside-in signaling. […] Clot retraction was monitored over a 90 min time period by taking photographs at indicated time points using a digital camera. Clot retraction was quantified on the photographs by measuring the clot surface area with the NIH Image 1.67e software, and the data were processed using Excel 4.0. Results were expressed as percentage of retraction (%=area t/area t0×100%).

platelets [2] = experiment: Platelet stable adhesion on immobilized fibrinogen (phosphatase assay); settings: 62.5-250 μM
Procedure: as §1

Compound: CCCCCCCCCCCCCC(=O)N[C@@H](CCCNC(=N)N)C(=O)NCC(=O)N[C@H](C(=O)O)[C@@H](C)O [myr-RGT] (Myristoyl-Arg-Gly-Thr-OH; N-terminus and C-terminus assumed)
- platelet lysis (platelets [1]): did not induce platelet lysis

Compound: RGDS
- inhibition of clot retraction (washed platelets): inhibit clot retraction

Compound: CCCCCCCCCCCCCC(=O)O [myristic acid, tetradecanoic acid]
- effect on platelet stable adhesion on immobilized fibrinogen (platelets [2]): no significant inhibitory effect
